Measurements from patent US7378411B2, “Substituted thienopyrimidinones as a mitotic kinesin inhibitor” (Merck & Co., Inc., priority 2001, dated 2008).

Target: T1, human KSP motor domain (Homo sapiens, UniProt P52732)
T1 construct: were used to amplify the motor domain and the neck linker region; made in house; host or cells: E. coli BL21 (DE3), pRSETa
T1 sequence (P52732 18-359 limits assumed): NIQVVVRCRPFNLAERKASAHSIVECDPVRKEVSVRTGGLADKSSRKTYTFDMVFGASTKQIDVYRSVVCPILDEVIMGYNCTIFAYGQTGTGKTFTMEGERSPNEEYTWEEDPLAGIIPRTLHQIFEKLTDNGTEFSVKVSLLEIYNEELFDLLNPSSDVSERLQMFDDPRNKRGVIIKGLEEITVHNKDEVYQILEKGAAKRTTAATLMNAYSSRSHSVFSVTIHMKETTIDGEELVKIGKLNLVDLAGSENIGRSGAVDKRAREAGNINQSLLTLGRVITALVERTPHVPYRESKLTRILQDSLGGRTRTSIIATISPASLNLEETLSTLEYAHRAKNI
Test: Kinesin ATPase In Vitro Assay
Format: biochemical
Settings: KSP(367H) motor domain with microtubules, 1 mM ATP, 23° C.; free phosphate by quinaldine red/ammonium molybdate
Description: I. Kinesin ATPase In Vitro Assay
Cloning and Expression of Human Poly-histidine Tagged KSP Motor Domain (KSP(367H))
Plasmids for the expression of the human KSP motor domain construct were cloned by PCR using a pBluescript full length human KSP construct (Blangy et al., Cell, vol. 83, pp 1159-1169, 1995) as a template. The N-terminal primer 5′-[…] (SEQ.ID.NO.:) and the C-terminal primer 5′-[…] […] (SEQ.ID.NO.:) were used to amplify the motor domain and the neck linker region. The PCR products were digested with AseI and XhoI, ligated into the NdeIl/XhoI digestion product of pRSETa (Invitrogen) and transformed into E. coli BL21 (DE3).
Cells were grown at 37° C. to an OD600 of 0.5. After cooling the culture to room temperature expression of KSP was induced with 100 μM IPTG and incubation was continued overnight. Cells were pelleted by centrifugation and washed once with ice-cold PBS. Pellets were flash-frozen and stored −80° C.
Cell pellets were thawed on ice and resuspended in lysis buffer (50 mM K-HEPES, pH 8.0, 250 mM KCl, 0.1% Tween, 10 mM imidazole, 0.5 mM Mg-ATP, 1 mM PMSF, 2 mM benzimidine, 1× complete protease inhibitor cocktail (Roche)). Cell suspensions were incubated with 1 mg/ml lysozyme and 5 mM β-mercaptoethanol on ice for 10 minutes, followed by sonication (3×30 sec). All subsequent procedures were performed at 4° C. Lysates were centrifuged at 40,000×g for 40 minutes. Supernatants were diluted and loaded onto an SP Sepharose column (Pharmacia, 5 ml cartridge) in buffer A (50 mM K-HEPES, pH 6.8, 1 mM MgCl2, 1 mM EGTA, 10 μM Mg-ATP, 1 mM DTT) and eluted with a 0 to 750 mM KCl gradient in buffer A. Fractions containing KSP were pooled and incubated with Ni-NTA resin (Qiagen) for one hour. The resin was washed three times with buffer B (Lysis buffer minus PMSF and protease inhibitor cocktail), followed by three 15-minute incubations and washes with buffer B. Finally, the resin was incubated and washed for 15 minutes three times with buffer C (same as buffer B except for pH 6.0) and poured into a column. KSP was eluted with elution buffer (identical to buffer B except for 150 mM KCl and 250 mM imidazole). KSP-containing fractions were pooled, made 10% in sucrose, and stored at −80° C.
Microtubules are prepared from tubulin isolated from bovine brain. Purified tubulin (>97% MAP-free) at 1 mg/ml is polymerized at 37° C. in the presence of 10 μM paclitaxel, 1 mM DTT, 1 mM GTP in BRB80 buffer (80 mM K-PIPES, 1 mM EGTA, 1 mM MgCl2 at pH 6.8). The resulting microtubules are separated from non-polymerized tubulin by ultracentrifugation and removal of the supernatant. The pellet, containing the microtubules, is gently resuspended in 10 μM paclitaxel, 1 mM DTT, 50 μg/ml ampicillin, and 5 μg/ml chloramphenicol in BRB80.
The kinesin motor domain is incubated with microtubules, 1 mM ATP (1:1 MgCl2: Na-ATP), and compound at 23° C. in buffer containing 80 mM K-HEPES (pH 7.0), 1 mM EGTA, 1 mM DTT, 1 mM MgCl2, and 50 mM KCl. […] Free phosphate from the ATP hydrolysis reaction is measured via a quinaldine red/ammonium molybdate assay by adding 150 μl of quench C buffer containing a 2:1 ratio of quench A:quench B. Quench A contains 0.1 mg/ml quinaldine red and 0.14% polyvinyl alcohol; quench B contains 12.3 mM ammonium molybdate tetrahydrate in 1.15 M sulfuric acid. The reaction is incubated for 10 minutes at 23° C., and the absorbance of the phospho-molybdate complex is measured at 540 nm.

IC50, ≤ 50 µM:
CCC(c1nc2ccsc2c(=O)n1Cc1ccccc1)N(CCN(C)C)C(=O)c1ccc(Br)cc1 (centres unmarked) [Compound 1-8, N-[1-(3-Benzyl-4-oxo-3,4-dihydrothieno[3,2-d]pyrimidin-2-yl)propyl]-4-bromo-N-[2-(dimethylamino)ethyl]benzamide]
CCC(c1nc2sc(Br)c(Br)c2c(=O)n1Cc1ccccc1)N(CCN(C)C)C(=O)c1ccc(Br)cc1 (centres unmarked) [Compound 2-9, N-[1-(3-benzyl-5,6-dibromo-4-oxo-3,4-dihydrothieno[2,3-d]pyrimidin-2-yl)propyl]-4-bromo-N-[2-(dimethylamino)ethyl]benzamide]
CCC(c1nc2sc(Br)cc2c(=O)n1Cc1ccccc1)N(CCN(C)C)C(=O)c1ccc(Br)cc1 (centres unmarked) [Compound 2-10, N-[1-(3-benzyl-6-bromo-4-oxo-3,4-dihydrothieno[2,3-d]pyrimidin-2-yl)propyl]-4-bromo-N-[2-(dimethylamino)ethyl]benzamide]
CCC(c1nc2sccc2c(=O)n1Cc1ccccc1)N(CCN(C)C)C(=O)c1ccc(Br)cc1 (centres unmarked) [Compound 3-2, N-[1-(3-benzyl-4-oxo-3,4-dihydrothieno[2,3-d]pyrimidin-2-yl)propyl]-4-bromo-N-[2-(dimethylamino)ethyl]benzamide]
CCC(c1nc2sccc2c(=O)n1Cc1ccccc1)N(CCN(C)C)Cc1ccc(Br)cc1 (centres unmarked) [Compound 4-1, 3-benzyl-2-(1-{(4-bromobenzyl)[2-(dimethylamino)ethyl]amino}propyl)thieno[2,3-d]pyrimidin-4(3H)-one]
